Each block holds one compound with its values, some of them ahead of it. Peptide text beside a SMILES is read from it. * marks the point of attachment. MeOSuc = COC(=O)CCC(=O)*; CH2Cl = ClC*
Columns and labels:
Type in all cases: biochemical
elastase = elastase (Sus scrofa, UniProt P00772); experiment: EnzChek Elastase Assay Kit, anti-elastase activity; settings: fluorometric kit, 37 °C, 30 min kinetic
Experimental: Anti-elastase activity of the compound was investigated using the EnzChek® Elastase Assay Kit (E-12056) according to the previously reported method. The tested compound and reference control were prepared in concentrations of 0.1, 1, 10, and 100 µg/mL for the analysis. The compound was prepared in 96-well plates with clear bottoms for the fluorometric assay. Briefly, elastase enzyme solutions, elastase substrate, and inhibitor control were prepared as recommended. Diluted elastase solution was then added to the wells. Tested compound, inhibitor control, and enzyme control were added to subsequent wells. The samples were mixed on a shaker and then incubated for 5 min at 37 °C. Assay buffer was mixed with the substrate to prepare the fluorometric reaction mix, which was then added and mixed thoroughly with each sample. The fluorescence was measured immediately at 400 nm excitation wavelength and 505 nm emission wavelength using a microplate reader (FilterMax F5, Thermo Fisher, Waltham, MA, USA). The measurement was made in kinetic mode at 37 °C for 30 min protected from light. All tested samples were prepared and assayed in duplicate and the elastase inhibitory effect of the tested compound was calculated applying the following equation: %Relative inhibition=ΔRFU(test inhibitor)/ΔRFU×100 where: • ΔRFU = a change in relative fluorescence units • EC = enzyme control

tyrosinase = experiment: Tyrosinase Inhibitor Screening Colorimetric Assay Kit; settings: 25 °C, 510 nm
Experimental: The inhibitory activities of oils were tested against collagenase using the Abcam® Tyrosinase Inhibitor Screening Colorimetric Assay Kit (catalog # ab204715). The assay was carried out according to the provided manual. […] The tested compound was prepared in concentrations ranging from 0.1 to 100 µg/mL for the analysis. About 2 μL of provided tyrosinase was mixed with 48 μL of tyrosinase assay buffer. The samples of essential oils or standard (20 μL) were mixed with the enzyme mixture (50 μL) and incubated at 25 °C for 10 min. Then, 30 μL of tyrosinase substrate solution was added to the wells of essential oils and standard. Afterward, the plate was measured spectrophotometrically at a wavelength of 510 nm for 30–60 min at 25 °C.

collagenase = experiment: fluorometric collagenase inhibitor screening kit; settings: 37 °C, 60 min kinetic
Experimental: The inhibitory ability of the isolated compound against collagenase activity was assessed using a fluorometric collagenase inhibitor screening kit (BioVision, catalog no. # K833-100) according to the previously described method. The reference control was (1,10)-phenanthroline. The tested compound and reference control were prepared in concentrations of 1, 10, 100, and 1000 ug/mL for the analysis. The tested compound was prepared in a 96-well plate with a flat bottom. First, the collagenase substrate was dissolved in collagenase assay buffer (CAB). The sample for analysis was prepared by mixing the compound with both collagenase and CAB. Preparing inhibitor control samples was performed by mixing the inhibitor ((1,10)-phenanthroline (80 mM)) with the diluted collagenase enzyme and CAB buffer. Enzyme control was prepared by mixing the diluted collagenase with CAB. The CAB buffer was used as the background control. All samples were incubated at room temperature for 15 min. […] The fluorescence was measured immediately at 490 nm excitation wavelength and 520 nm emission wavelength using a microplate reader (FilterMax F5, Thermo Fisher). […] Samples were prepared in duplicate and the collagenase inhibitory effect of the tested compound was calculated applying the following equation: % Relative inhibition=Enzyme control−sample/Enzyme control×100

elastase, sequence (P00772 27-266): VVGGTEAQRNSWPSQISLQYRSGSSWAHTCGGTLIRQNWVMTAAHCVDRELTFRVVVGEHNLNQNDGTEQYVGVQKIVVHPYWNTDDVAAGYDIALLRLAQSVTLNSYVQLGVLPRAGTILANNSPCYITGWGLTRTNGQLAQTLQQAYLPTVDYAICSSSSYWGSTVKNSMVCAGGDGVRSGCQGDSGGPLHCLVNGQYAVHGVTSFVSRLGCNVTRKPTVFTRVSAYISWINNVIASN

anti-elastase IC50 (elastase): 0.63 µg/mL
Compound: COC(=O)CCC(=O)N[C@@H](C)C(=O)N[C@@H](C)C(=O)N1CCC[C@H]1C(=O)N[C@H](C(=O)CCl)C(C)C [N-methoxysuccinyl-Ala-Ala-Pro-Val-chloromethyl ketone] (MeOSuc-AAPV-CH2Cl)

anti-tyrosinase IC50 (tyrosinase): 0.48 µg/mL
Compound: O=c1c2ccc(O)c(O)c2oc2c(C3OC(CO)C(O)C(O)C3O)c(O)cc(O)c12 [isolated compound, 1,3,5,6-tetrahydroxyxanthone-C-4-β-D-glucopyranoside]

Compound: c1cnc2c(c1)ccc1cccnc12 [phenanthroline, (1,10)-phenanthroline]
anti-collagenase IC50 (collagenase): 182.80 µg/mL

— article PMC9105941, “A New Xanthone Glycoside from Mangifera indica L.: Physicochemical Properties and In Vitro Anti-Skin Aging Activities” (Molecules, 2022)
